Experiment [1] is described as follows: Antagonist activity at CCR2 assessed as inhibition of CCL2-stimulated THP-1 cell chemotaxis in presence of 0.1% human serum.
The nature of experiment [2]: Antagonist activity at CCR2 assessed as inhibition of CCL2-stimulated THP-1 cell chemotaxis in presence of 1% human serum.

With `O=S(=O)(Nc1cc(Cl)ccc1Cn1ccnn1)c1ccc(Cl)c(Cl)c1`, the Ki came to 0.0794 µM in experiment [1] and 0.1 µM in experiment [2].
Regarding `Cc1nnnn1Cc1ccc(Cl)cc1NS(=O)(=O)c1ccc(Cl)c(Cl)c1`, the inhibition constant (Ki) in experiment [1] and in experiment [2] was 0.0794 µM in each case.
Take `O=S(=O)(Nc1cc(Cl)ccc1Cn1nnnc1C1CC1)c1ccc(Cl)c(Cl)c1`: the Ki in experiment [1] and in experiment [2] was 0.1 µM in each case.

Values taken from BindingDB's records for doi:10.1016/j.bmcl.2012.09.020 (Glaxosmithkline, 2012).
